Reference: PubChem BioAssay (NCI)
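Five compound concentrations were applied to cells in 96-well plates for 48 hours; endpoints were derived by simple linear interpolation of the resulting dose-response curve. Here, GI50 denotes the concentration required for 50% inhibition of growth. At the TGI there is no net growth.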

Experiments:
Assay in all cases: inhibition of tumour cell growth, NCI panel, 48 h
786-0 renal = tested on: 786-0 renal
A498 renal = tested on: A498 renal
A549 NSCLC = tested on: A549 NSCLC
ACHN renal = tested on: ACHN renal
CAKI-1 renal = tested on: CAKI-1 renal
COLO 205 colon = tested on: COLO 205 colon
DLD-1 colon = tested on: DLD-1 colon
DMS 114 small cell lung = tested on: DMS 114 small cell lung
DMS 273 small cell lung = tested on: DMS 273 small cell lung
EKVX NSCLC = tested on: EKVX NSCLC
HCC-2998 colon = tested on: HCC-2998 colon
HCT-116 colon = tested on: HCT-116 colon
HCT-15 colon = tested on: HCT-15 colon
HOP-18 NSCLC = tested on: HOP-18 NSCLC
HOP-62 NSCLC = tested on: HOP-62 NSCLC
HOP-92 NSCLC = tested on: HOP-92 NSCLC
HT29 colon = tested on: HT29 colon
IGROV1 ovarian = tested on: IGROV1 ovarian
K-562 leukemia = tested on: K-562 leukemia
KM12 colon = tested on: KM12 colon
KM20L2 colon = tested on: KM20L2 colon
LOX IMVI melanoma = tested on: LOX IMVI melanoma
LXFL 529 NSCLC = tested on: LXFL 529 NSCLC
M14 melanoma = tested on: M14 melanoma
M19-MEL melanoma = tested on: M19-MEL melanoma
MALME-3M melanoma = tested on: MALME-3M melanoma
MOLT-4 leukemia = tested on: MOLT-4 leukemia
NCI-H23 lung = tested on: NCI-H23 lung
NCI-H460 lung = tested on: NCI-H460 lung
NCI-H522 lung = tested on: NCI-H522 lung
OVCAR-3 ovarian = tested on: OVCAR-3 ovarian
OVCAR-4 ovarian = tested on: OVCAR-4 ovarian
OVCAR-5 ovarian = tested on: OVCAR-5 ovarian
OVCAR-8 ovarian = tested on: OVCAR-8 ovarian
RXF 393 renal = tested on: RXF 393 renal
RXF-631 renal = tested on: RXF-631 renal
SF-268 CNS = tested on: SF-268 CNS
SF-295 CNS = tested on: SF-295 CNS
SF-539 CNS = tested on: SF-539 CNS
SK-MEL-2 melanoma = tested on: SK-MEL-2 melanoma
SK-MEL-28 melanoma = tested on: SK-MEL-28 melanoma
SK-MEL-5 melanoma = tested on: SK-MEL-5 melanoma
SK-OV-3 ovarian = tested on: SK-OV-3 ovarian
SN12C renal = tested on: SN12C renal
SNB-19 CNS = tested on: SNB-19 CNS
SNB-75 CNS = tested on: SNB-75 CNS
SNB-78 CNS = tested on: SNB-78 CNS
SW-620 colon = tested on: SW-620 colon
TK-10 renal = tested on: TK-10 renal
U251 CNS = tested on: U251 CNS
UACC-257 melanoma = tested on: UACC-257 melanoma
UACC-62 melanoma = tested on: UACC-62 melanoma
UO-31 renal = tested on: UO-31 renal
XF 498 CNS = tested on: XF 498 CNS
CCRF-CEM leukemia = tested on: CCRF-CEM leukemia
HL-60(TB) leukemia = tested on: HL-60(TB) leukemia
NCI-H226 lung = tested on: NCI-H226 lung
RPMI-8226 leukemia = tested on: RPMI-8226 leukemia
SR leukemia = tested on: SR leukemia

CCC[CH2][Sn]1([CH2]CCC)[O]C(=O)C(C(C)C)N=Cc2ccccc2[O]1 (configuration not stated)
GI50 (786-0 renal): 307 nM
TGI (786-0 renal): 1150 nM
GI50 (A498 renal): 1080 nM
TGI (A498 renal): > 100000 nM
GI50 (A549 NSCLC): 1590 nM
TGI (A549 NSCLC): 3140 nM
GI50 (ACHN renal): 274 nM
TGI (ACHN renal): 882 nM
GI50 (CAKI-1 renal): 136 nM
TGI (CAKI-1 renal): 470 nM
GI50 (COLO 205 colon): 213 nM
TGI (COLO 205 colon): 693 nM
GI50 (DLD-1 colon): 499 nM
TGI (DLD-1 colon): > 100000 nM
GI50 (DMS 114 small cell lung): 91.8 nM
TGI (DMS 114 small cell lung): 229 nM
GI50 (DMS 273 small cell lung): 730 nM
TGI (DMS 273 small cell lung): 2040 nM
GI50 (EKVX NSCLC): 402 nM
TGI (EKVX NSCLC): 1670 nM
GI50 (HCC-2998 colon): 600 nM
TGI (HCC-2998 colon): 1880 nM
GI50 (HCT-116 colon): 547 nM
TGI (HCT-116 colon): 1780 nM
GI50 (HCT-15 colon): 345 nM
TGI (HCT-15 colon): 1340 nM
GI50 (HOP-18 NSCLC): 668 nM
TGI (HOP-18 NSCLC): 1920 nM
GI50 (HOP-62 NSCLC): 3790 nM
TGI (HOP-62 NSCLC): > 100000 nM
GI50 (HOP-92 NSCLC): 131 nM
TGI (HOP-92 NSCLC): 442 nM
GI50 (HT29 colon): 907 nM
TGI (HT29 colon): 2210 nM
GI50 (IGROV1 ovarian): 2210 nM
TGI (IGROV1 ovarian): > 100000 nM
GI50 (K-562 leukemia): 171 nM
TGI (K-562 leukemia): 1040 nM
GI50 (KM12 colon): 648 nM
TGI (KM12 colon): 1980 nM
GI50 (KM20L2 colon): 1040 nM
TGI (KM20L2 colon): 2220 nM
GI50 (LOX IMVI melanoma): 163 nM
TGI (LOX IMVI melanoma): 401 nM
GI50 (LXFL 529 NSCLC): 61.7 nM
TGI (LXFL 529 NSCLC): 200 nM
GI50 (M14 melanoma): 267 nM
TGI (M14 melanoma): 939 nM
GI50 (M19-MEL melanoma): 232 nM
TGI (M19-MEL melanoma): 1080 nM
GI50 (MALME-3M melanoma): 188 nM
TGI (MALME-3M melanoma): 456 nM
GI50 (MOLT-4 leukemia): 236 nM
TGI (MOLT-4 leukemia): 1040 nM
GI50 (NCI-H23 lung): 158 nM
TGI (NCI-H23 lung): 534 nM
GI50 (NCI-H460 lung): 1280 nM
TGI (NCI-H460 lung): 2570 nM
GI50 (NCI-H522 lung): 44.2 nM
TGI (NCI-H522 lung): 168 nM
GI50 (OVCAR-3 ovarian): 730 nM
TGI (OVCAR-3 ovarian): 1990 nM
GI50 (OVCAR-4 ovarian): 836 nM
TGI (OVCAR-4 ovarian): 2070 nM
GI50 (OVCAR-5 ovarian): 1610 nM
TGI (OVCAR-5 ovarian): 2980 nM
GI50 (OVCAR-8 ovarian): > 100000 nM
TGI (OVCAR-8 ovarian): > 100000 nM
GI50 (RXF 393 renal): 72.2 nM
TGI (RXF 393 renal): 219 nM
GI50 (RXF-631 renal): 166 nM
TGI (RXF-631 renal): 308 nM
GI50 (SF-268 CNS): 182 nM
TGI (SF-268 CNS): 1010 nM
GI50 (SF-295 CNS): 1040 nM
TGI (SF-295 CNS): 2290 nM
GI50 (SF-539 CNS): 878 nM
TGI (SF-539 CNS): > 100000 nM
GI50 (SK-MEL-2 melanoma): 195 nM
TGI (SK-MEL-2 melanoma): 521 nM
GI50 (SK-MEL-28 melanoma): 235 nM
TGI (SK-MEL-28 melanoma): 819 nM
GI50 (SK-MEL-5 melanoma): 1070 nM
TGI (SK-MEL-5 melanoma): > 100000 nM
GI50 (SK-OV-3 ovarian): 520 nM
TGI (SK-OV-3 ovarian): 1630 nM
GI50 (SN12C renal): 288 nM
TGI (SN12C renal): 987 nM
GI50 (SNB-19 CNS): 214 nM
TGI (SNB-19 CNS): 645 nM
GI50 (SNB-75 CNS): 235 nM
TGI (SNB-75 CNS): 776 nM
GI50 (SNB-78 CNS): 227 nM
TGI (SNB-78 CNS): 1230 nM
GI50 (SW-620 colon): 158 nM
TGI (SW-620 colon): 318 nM
GI50 (TK-10 renal): 272 nM
TGI (TK-10 renal): 730 nM
GI50 (U251 CNS): 228 nM
TGI (U251 CNS): 636 nM
GI50 (UACC-257 melanoma): 143 nM
TGI (UACC-257 melanoma): 343 nM
GI50 (UACC-62 melanoma): 244 nM
TGI (UACC-62 melanoma): 693 nM
GI50 (UO-31 renal): 462 nM
TGI (UO-31 renal): 1800 nM
GI50 (XF 498 CNS): > 100000 nM
TGI (XF 498 CNS): > 100000 nM

COC(=O)c1cccc2cccc(C(=O)Nc3ccc(C)cc3C)c12
TGI (786-0 renal): > 100000 nM
TGI (A498 renal): > 100000 nM
TGI (A549 NSCLC): > 100000 nM
TGI (ACHN renal): > 100000 nM
TGI (CAKI-1 renal): > 100000 nM
TGI (CCRF-CEM leukemia): > 100000 nM
TGI (COLO 205 colon): > 100000 nM
TGI (DLD-1 colon): > 100000 nM
TGI (DMS 114 small cell lung): > 100000 nM
TGI (DMS 273 small cell lung): > 100000 nM
TGI (EKVX NSCLC): > 100000 nM
TGI (HCC-2998 colon): > 100000 nM
TGI (HCT-116 colon): > 100000 nM
TGI (HCT-15 colon): > 100000 nM
TGI (HL-60(TB) leukemia): 35000 nM
TGI (HOP-18 NSCLC): > 100000 nM
TGI (HOP-62 NSCLC): > 100000 nM
TGI (HOP-92 NSCLC): > 100000 nM
TGI (HT29 colon): > 100000 nM
TGI (IGROV1 ovarian): > 100000 nM
TGI (K-562 leukemia): > 100000 nM
TGI (KM12 colon): > 100000 nM
TGI (KM20L2 colon): > 100000 nM
TGI (LOX IMVI melanoma): > 100000 nM
TGI (LXFL 529 NSCLC): > 100000 nM
TGI (M14 melanoma): > 100000 nM
TGI (M19-MEL melanoma): > 100000 nM
TGI (MALME-3M melanoma): > 100000 nM
TGI (MOLT-4 leukemia): > 100000 nM
TGI (NCI-H226 lung): > 100000 nM
TGI (NCI-H23 lung): > 100000 nM
TGI (NCI-H460 lung): > 100000 nM
TGI (NCI-H522 lung): > 100000 nM
TGI (OVCAR-3 ovarian): > 100000 nM
TGI (OVCAR-4 ovarian): > 100000 nM
TGI (OVCAR-5 ovarian): > 100000 nM
TGI (OVCAR-8 ovarian): > 100000 nM
TGI (RPMI-8226 leukemia): > 100000 nM
TGI (RXF 393 renal): > 100000 nM
TGI (RXF-631 renal): > 100000 nM
TGI (SF-268 CNS): > 100000 nM
TGI (SF-295 CNS): > 100000 nM
TGI (SF-539 CNS): > 100000 nM
TGI (SK-MEL-2 melanoma): > 100000 nM
TGI (SK-MEL-28 melanoma): > 100000 nM
TGI (SK-MEL-5 melanoma): > 100000 nM
TGI (SK-OV-3 ovarian): > 100000 nM
TGI (SN12C renal): > 100000 nM
TGI (SNB-19 CNS): > 100000 nM
TGI (SNB-75 CNS): > 100000 nM
TGI (SNB-78 CNS): > 100000 nM
TGI (SR leukemia): > 100000 nM
TGI (SW-620 colon): > 100000 nM
TGI (TK-10 renal): > 100000 nM
TGI (U251 CNS): > 100000 nM
TGI (UACC-257 melanoma): > 100000 nM
TGI (UACC-62 melanoma): > 100000 nM
TGI (UO-31 renal): > 100000 nM
TGI (XF 498 CNS): > 100000 nM
